Assay results reported in patent US11464770B2, “Anticancer pharmaceutical composition” (NATIONAL CANCER CENTER, priority 2016, dated 2022).
Read-outs that look alike come from different tables or passages of the source.

Assays:
[1] = test system: RT4: human urinary bladder transitional cell papilloma; experiment: Cell based assay, cytotoxicity in RT4 papilloma cells (selectivity); conditions: Homo sapiens, RT-4; RT4 cells
[2] = test system: ovarian cancer cell lines; experiment: Cell based assay, cell viability (CellTiter-Glo), ovarian cancer cell lines; conditions: Homo sapiens; OVCAR-3 cells
In short: (§1)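 Plated cells (24 h) → compound to 0–2 μM final → 72 h → CellTiter-Glo ATP luminescence.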

[3] = test system: neuroblastoma cell lines; experiment: Cell based assay, cell viability (CellTiter-Glo), neuroblastoma cell lines; conditions: Homo sapiens; SH-SY5Y cell line
In short: as §1

[4] = test system: renal cancer cell lines; experiment: Cell based assay, cell viability (CellTiter-Glo), renal cancer cell lines; conditions: Homo sapiens; ACHN cells
In short: as §1

[5] = test system: prostate cancer cell lines (e.g. DU145/TXR); experiment: Cell based assay, cell viability (CellTiter-Glo), prostate cancer cell lines; conditions: Homo sapiens, 72 hours treatment, final concentration 0 to 2 μM
In short: as §1

[6] = test system: bladder cancer cell lines; experiment: Cell based assay, cell viability (CellTiter-Glo), bladder cancer cell lines; conditions: 72 hours treatment, 0 to 2 μM, CellTiter-Glo
In short: as §1

[7] = CWR22 cells, read-out: IC50, prostate cancer cell line CWR22
[8] = DU-145, DU145 cells, read-out: IC50, prostate cancer cell line DU145
[9] = LNcap cells, read-out: IC50, prostate cancer cell line LNcap
[10] = PC-3 cells, read-out: IC50, prostate cancer cell line PC-3
[11] = 5637 cells, read-out: IC50, bladder cancer cell line 5637
[12] = Homo sapiens, T-24, T24 cells, read-out: IC50, bladder cancer cell line T24
[13] = Homo sapiens, J82 cells, read-out: IC50, bladder cancer cell line J82
[14] = DU-145, DU145/TXR cells, read-out: IC50, prostate cancer cell line DU145/TXR

Structure (SMILES) | IC50 [2] [µM] | IC50 [3] [µM] | IC50 [4] [µM] | IC50 [5, 7] [µM] | IC50 [5, 8] [µM] | IC50 [5, 9] [µM] | IC50 [5, 10] [µM] | IC50 [6, 11] [µM] | IC50 [6, 12] [µM] | IC50 [6, 13] [µM] | IC50 [5, 14] [µM] | IC50 [1] [µM]
COc1cc(C[S+]([O-])c2[nH]c3c(Br)ccc(Cl)c3c(=O)c2C(C)=O)cc(OC)c1 (stereo not shown) [Compound 59, 3-acetyl-8-bromo-5-chloro-2-((3,5-dimethoxybenzyl)sulfinyl)quinolin-4(1H)-one] | 0.84 | > 2 | > 2 | 1.56 | 1.49 | > 2 | 1.64 | > 2 | 1.11 | > 2 | – | > 10
CC(=O)c1c([S+]([O-])Cc2cc(C)on2)[nH]c2c(Br)ccc(Cl)c2c1=O (stereo not shown) [Compound 51, 3-acetyl-8-bromo-5-chloro-2-(((5-methylisoxazol-3-yl)methyl)sulfinyl)quinolin-4(1H)-one] | 0.85 | > 2 | > 2 | 1.03 | 1.24 | 1.24 | 1.36 | 1.07 | 0.89 | > 2 | 1.12 | > 10
CC(=O)c1c([S+]([O-])Cc2cc(F)cc(S(F)(F)(F)(F)F)c2)[nH]c2c(Br)ccc(Cl)c2c1=O (stereo not shown) [Compound 76, 3-acetyl-8-bromo-5-chloro-2-((3-fluoro-5-(pentafluoro--sulfanyl)benzyl)sulfinyl)quinolin-4(1H)-one] | 1.46 | > 2 | > 2 | > 2 | 1.14 | > 2 | 1.7 | > 2 | 1.79 | > 2 | 1.17 | > 10
CC(=O)c1c([S+]([O-])Cc2ccc([N+](=O)[O-])cc2)[nH]c2c(Br)ccc(Cl)c2c1=O (stereo not shown) [Compound 33, 3-acetyl-8-bromo-5-chloro-2-((4-nitrobenzyl)sulfinyl)quinolin-4(1H)-one] | 1.18 | > 2 | > 2 | 1.34 | 1.63 | 1.84 | 1.58 | > 2 | 1.03 | > 2 | 1.34 | > 10

Now from value to molecule, other results behind:

IC50 [2] [µM] | IC50 [3] [µM] | IC50 [4] [µM] | IC50 [5, 7] [µM] | IC50 [5, 8] [µM] | IC50 [5, 9] [µM] | IC50 [5, 10] [µM] | IC50 [6, 11] [µM] | IC50 [6, 12] [µM] | IC50 [6, 13] [µM] | IC50 [5, 14] [µM] | Structure (SMILES) | IC50 [1] [µM]
0.8 | > 2 | > 2 | 1.77 | 1.73 | 1.55 | 1.46 | 1.33 | 1.09 | > 2 | – | CC(=O)c1c([S+]([O-])Cc2ccc(F)cc2F)[nH]c2c(Br)ccc(Cl)c2c1=O (stereo not shown) [Compound 29, 3-acetyl-8-bromo-5-chloro-2-((2,4-difluorobenzyl)sulfinyl)quinolin-4(1H)-one] | > 10
0.73 | > 2 | > 2 | 1.52 | 0.71 | 1.91 | 1.28 | 1.64 | 1.25 | 1.63 | 0.89 | CC(=O)c1c([S+]([O-])Cc2ccc(C(F)(F)F)o2)[nH]c2c(Br)ccc(Cl)c2c1=O (stereo not shown) [Compound 72, 3-acetyl-8-bromo-5-chloro-2-(((5-(trifluoromethyl)furan-2-yl)methyl)sulfinyl)quinolin-4(1H)-one] | > 10
0.82 | 1.24 | > 2 | 1.94 | 1.34 | > 2 | > 2 | 1.37 | 1.5 | > 2 | 1.05 | CC(=O)c1c([S+]([O-])Cc2ccc(I)cc2)[nH]c2c(Cl)ccc(Cl)c2c1=O (stereo not shown) [Compound 83, 3-acetyl-5,8-dichloro-2-((4-iodobenzyl)sulfinyl)quinolin-4(1H)-one] | > 10
